Test results as given in patent US7297712B2, “Cationic amphiphiles for intracellular delivery of therapeutic molecules and its composition, process and method of treatment” (Council of Scientific and Industrial Research, priority 2002, dated 2007).

system: COS-1 cells; test: Cell transfection, β-galactosidase reporter gene activity; format: cell-based; details: pCMV β-gal plasmid 0.15 μg, lipid:DNA charge ratios 0.1:1 to 9:1, compared with DMRIE, FIG. 1
Description: Similar examples of plasmid include PGL-2 and PGL-3 of Promega and others.
Cell Transfection. COS-1 cells were seeded at a density of 15,000 cells/well in a 96-well plate eighteen hours before the transfection. 0.15 μg of plasmid DNA was complexed with varying amount of lipid (0.05-4.3 nmoles) in 13 μl of plain DMEM medium for 30 min. The charge ratios were varied from 0.1:1 to 9:1 (+/−) over this range of the lipid. The complex was diluted to 100 μl with plain DMEM and added to the wells. After 3 h of incubation, 100 μl of DMEM with 10% FCS was added to the cells. The medium was changed to 10% complete medium after 24 h and the reporter gene activity was estimated after 48 h. The cells were washed twice with PBS and lysed in 50 μl of lysis buffer (0.25 M Tris.HCl, pH 8.0 and 0.5% NP40). Care was taken to ensure complete lysis. The β-galactosidase activity per well was estimated by adding 50 μl of 2× substrate solution (1.33 mg/ml of ONPG, 0.2 M sodium phosphate, pH 7.15 and 2 mM magnesium chloride) to the lysate in a 96-well plate. Absorption at 405 nm was converted to β-galactosidase units by using calibration curve constructed with pure commercial β-galactosidase enzyme. The values of β-galactosidase units in replicate plates assayed on the same day varied by less than 30%. […]

SMILES	in vitro transfection efficiency
CCCCCCCCCCCCCC[N+]1(CCCCCCCCCCCCCC)CC(O)C(O)C1 (stereo not drawn) [lipid 2, N,N-di-n-tetradecyl-3,4-dihydroxy pyrrolidinium chloride]	comparable to or better than that of DMRIE

system: EtBr:pCMV β-gal complex (DNA); test: Lipid:DNA interactions assay (ethidium bromide exclusion fluorescence); format: binding; details: titration of EtBr:DNA complex with lipid, TE buffer pH 8.0, FIG. 2
From the text: Lipid:DNA Interactions Assay. Intercalation-induced fluorescence increase and competition with cationic lipids to bind to DNA has made Ethidium Bromide (EtBr) an excellent tool to study cationic lipid-DNA interactions. To assess the representative lipid:DNA interactions for the cationic lipids of the present invention, we have titrated the EtBr:pCMV β-gal complex with increasing amounts of cationic lipids 1-5.
The extent of Et.Br binding to the DNA was monitored by the changes in the fluorescence. EtBr fluorescence was monitored in Hitachi 4500 fluorimeter by setting the excitation wavelength at 518 nm and emission wavelength at 585 nm. To one ml of TE buffer (pH 8.0), 0.78 nmoles of DNA and 2.5 nmoles of EtBr were added. The change in fluorescence was monitored after adding small volumes of lipids 1-5 to the EtBr:DNA complex. Arbitrary fluorescence values were recorded after allowing sufficient time for equilibration. […] Percent fluorescence was calculated considering the fluorescence value in the absence of lipid as 100.

SMILES	lipid:DNA interaction (ability to exclude ethidium bromide from DNA)
CCCCCCCCCCCC[N+]1(CCCCCCCCCCCC)CC(O)C(O)C1 (stereo not drawn) [lipid 1, N,N-di-n-dodecyl-3,4-dihydroxy pyrrolidinium chloride]	interact poorly with DNA
CCCCCCCCCCCCCC[N+]1(CCCCCCCCCCCCCC)CC(O)C(O)C1 (stereo not drawn) [lipid 2, N,N-di-n-tetradecyl-3,4-dihydroxy pyrrolidinium chloride]	interact with DNA equally well up to lipid:DNA ratio of 1.25 or so
CCCCCCCCCCCCCCCC[N+]1(CCCCCCCCCCCCCCCC)CC(O)C(O)C1 (stereo not drawn) [lipid 3, N,N-di-n-hexadecyl-3,4-dihydroxy pyrrolidinium chloride]	interact with DNA equally well up to lipid:DNA ratio of 1.25 or so
CCCCCCCCCCCCCCCCCC[N+]1(CCCCCCCCCCCCCCCCCC)CC(O)C(O)C1 (stereo not drawn) [lipid 4, N,N-di-n-octadecyl-3,4-dihydroxy pyrrolidinium chloride]	interact poorly with DNA
CCCCCCCC/C=C\CCCCCCCC[N+]1(CCCCCCCCCCCCCCCCCC)CC(O)C(O)C1 (stereo not drawn) [lipid 5, N-n-octadecyl-N-oleyl-3,4 dihydroxy pyrrolidinium chloride]	interact poorly with DNA
